Data from patent US11331364B2, “Use for JNK inhibitor molecules for treatment of various diseases” (Xigen Inflammation Ltd., priority 2014, dated 2022).
Square brackets hold non-standard residues; d marks the D form. Peptide text beside a SMILES is read from it.

Assays:
healthy male volunteers = experiment: Phase I safety and tolerability of single and repeated instillations; assay type: in vivo, human
Procedure: XG-104 was prepared as solution for instillations (in NaCl 0.9%). NaCl 0.9% served as placebo. A total of 49 subjects were included in this study, 28 in the “Single dose part” of this study and 21 in the “Multiple dose part” of this study. In the single dose part, the 28 subjects included were randomised between one of the 5 groups: 5 subjects in each of the 4 XG-104 groups (0.1 mg, 0.2 mg, 0.4 mg, 0.8 mg) (0.2, 0.4, 0.8 and 1.6%, respectively) and 8 subjects in the placebo group. In the multiple dose part, the 21 subjects included were randomised between one of the 4 groups: 5 subjects in each of the 3 XG-104 groups (0.1 mg, 0.2 mg, 0.4 mg) and 6 subjects in the placebo group. All subjects completed the study.
In the “Single dose part” of this study, single topical doses of 0.1, 0.2, 0.4 and 0.8 mg (0.2, 0.4, 0.8 and 1.6%, respectively) of XG-104 were tested. A single administration of XG-104 or placebo was performed on day 1 (D1) (one drop in the right eye). In the single dose part, subjects were hospitalized for approximately 36 h, namely from day −1 (D−1) evening to D2 morning. On day 3 an ambulatory visit was performed and the study ended with a visit at D4.
In the “Multiple dose part” of this study, three dose levels were tested. Doses were chosen according to the results of the single dose part as follows: first group: 0.1 mg (0.2%), second group: 0.2 mg (0.4%), and third group: 0.4 mg (0.8%). XG-104 or placebo was administered tid (“ter in die”—three times daily), each time 1 drop in the right eye, from D1 to D21. The administration took place at around 8 a.m., 12 a.m. and 8 p.m. In the multiple dose part, subjects were hospitalized from D−1 evening to D22 morning, whereby the end of the study was a visit at D36 (±2). For more flexibility, subjects had the possibility to perform some visits in ambulatory. In that case visits were the following: hospitalization for approximately 36 h, D−1 evening to D2 morning, ambulatory visits from D2 to D7, hospitalization for approximately 36 h, D7 evening to D9 morning, ambulatory visits from D9 to D14, hospitalization for approximately 36 h, D14 evening to D16 morning, ambulatory visits from D16 to D20, and hospitalization for approximately 36 h, D20 evening to D22 morning. The end of the study was a visit at D36 (±2), accordingly.
The safety parameters evaluated included: physical examination; vital signs (BP, PR); 12-lead ECG (electrocardiogram); fundus of the eye, intraocular pressure, slit lamp examination, best-corrected visual acuity, redness; Schirmer's tear test, TBUT (tear film break-up time); clinical laboratory tests (haematology, haemostasis, clinical chemistry and urinalysis); adverse events; and assessment of tolerability.

human whole blood = experiment: PHA-L-induced cytokine release in human whole blood, 3 days; assay type: cell-based; settings: 1, 3, 10 μM, PHA-L 5 μg/mL
Procedure: FIG. 22 JNK inhibition and TNF-α release in human whole blood. The JNK inhibitor with SEQ ID NO: 172 was added at three different concentrations, namely 1, 3 and 10 μM 1 h before whole blood stimulation with PHA-L (5 μg/mL) for 3 days.
FIG. 23 JNK inhibition and IL-2 release in human whole blood. The JNK inhibitor with SEQ ID NO: 172 was added at three different concentrations, namely 1, 3 and 10 μM 1 h before whole blood stimulation with PHA-L (5 μg/mL) for 3 days.
Whole blood from human healthy volunteers was collected using a venipuncture connected to a pre-labeled vacuum tube containing sodium citrate. Tubes are gently mixed by inversion 7-8 times; and are then kept at RT until stimulation. 350 μl of RPMI+P/S were added into 1.2 ml-96-well plate. 10 times concentrated of SEQ ID NO: 172 was prepared in RPMI+P/S (50 μl per well). 50 μl was added into 1.2 ml-96 well plates. 50 μl of whole blood was then added in each well where either medium alone or JNK inhibitor has been previously added. Whole blood was incubated at 37° C., 5% CO2 for 60 min. 50 μl/well of ligands diluted in RPMI+P/S was prepared, corresponding to the final dilution 10 times concentrated. After 60 min of incubation, ligand was added; wells were then mixed by pipetting up and down the blood. […] Cytokine were then measured using standard Elisa kits. Results are expressed as pg/ml of supernatant of the measured cytokine.

[1] = multiple dose 0.1 mg (0.2%) tid
[2] = multiple dose 0.2 mg (0.4%) tid
[3] = multiple dose 0.4 mg (0.8%) tid

CC(C)C[C@H](NC(=O)[C@H](CC(N)=O)NC(=O)[C@H](CC(C)C)NC(=O)[C@@H](NC(=O)[C@@H](C)NC(=O)[C@@H]1CCCN1C(=O)[C@H](CCCNC(=N)N)NC(=O)[C@@H](CCCCN)NC(=O)[C@@H]1CCCN1C(=O)[C@H](CCCNC(=N)N)NC(=O)[C@@H](CCCNC(=N)N)NC(=O)[C@H](CCCNC(=N)N)NC(=O)[C@H](CCCNC(=N)N)NC(=O)[C@H](CCC(N)=O)NC(=O)[C@@H](CCCNC(=N)N)NC(=O)[C@H](CCCNC(=N)N)NC(=O)[C@H](CCCCN)NC(=O)[C@H](CCCCN)NC(=O)[C@H](N)CCCNC(=N)N)[C@@H](C)O)C(=O)N[C@H](Cc1ccccc1)C(N)=O [SEQ ID NO: 172, rKKRrQRRrRPkRPaTLNLf] (H-[dR]KKR[dR]QRR[dR]RP[dK]RP[dA]TLNL[dF]-NH2; N-terminus assumed)
conjunctival hyperaemia, left eye, unlikely related (number) (healthy male volunteers; [1]): 2
conjunctival hyperaemia, right eye, unlikely related (number) (healthy male volunteers; [1]): 6
conjunctivas, right eye, probably related (number) (healthy male volunteers; [1]): 2
punctate keratitis, left eye, unlikely related (number) (healthy male volunteers; [1]): 2
punctate keratitis, left eye, unrelated (number) (healthy male volunteers; [1]): 1
punctate keratitis, right eye, unlikely related (number) (healthy male volunteers; [1]): 6
conjunctival hyperaemia, left eye, unlikely related (number) (healthy male volunteers; [2]): 3
conjunctival hyperaemia, right eye, unlikely related (number) (healthy male volunteers; [2]): 5
eyelid irritation, right eye, probably related (number) (healthy male volunteers; [2]): 1
punctate keratitis, left eye, unlikely related (number) (healthy male volunteers; [2]): 1
punctate keratitis, left eye, unrelated (number) (healthy male volunteers; [2]): 4
punctate keratitis, right eye, unlikely related (number) (healthy male volunteers; [2]): 6
punctate keratitis, right eye, unrelated (number) (healthy male volunteers; [2]): 1
conjunctival hyperaemia, left eye, unlikely related (number) (healthy male volunteers; [3]): 2
conjunctival hyperaemia, right eye, unlikely related (number) (healthy male volunteers; [3]): 10
conjunctivitis, right eye, unlikely related (number) (healthy male volunteers; [3]): 1
punctate keratitis, left eye, unlikely related (number) (healthy male volunteers; [3]): 2
punctate keratitis, right eye, unlikely related (number) (healthy male volunteers; [3]): 5
clinical examination, biological parameters, vital signs or ECG parameters (healthy male volunteers; multiple dose part): No clinically relevant findings
intensity of TEAEs (healthy male volunteers; multiple dose part): mild to moderate
serious adverse events (healthy male volunteers; multiple dose part): No serious adverse events
TEAEs experienced after XG-104 administration (number) (healthy male volunteers; multiple dose part, tid D1 to D21, 0.1-0.4 mg): 61
tolerability (healthy male volunteers; repeated dose t.i.d. 0.1 mg, 0.2 mg, 0.4 mg): well tolerated
eye pruritus, right eye, unrelated (number) (healthy male volunteers; single dose 0.1 mg (0.2%)): 1
punctate keratitis, right eye, unrelated (number) (healthy male volunteers; single dose 0.1 mg (0.2%)): 2
tolerability (healthy male volunteers; single dose 0.1 mg, 0.2 mg, 0.4 mg): well tolerated
conjunctival hyperaemia, right eye, unrelated (number) (healthy male volunteers; single dose 0.2 mg (0.4%)): 1
punctate keratitis, right eye, unrelated (number) (healthy male volunteers; single dose 0.2 mg (0.4%)): 2
punctate keratitis, right eye, unrelated (number) (healthy male volunteers; single dose 0.4 mg (0.8%)): 2
TEAEs right eye probably related to study drug (number) (healthy male volunteers; single dose 0.8 mg (1.6%)): 3
conjunctival hyperaemia, right eye, probably related (number) (healthy male volunteers; single dose 0.8 mg (1.6%)): 1
conjunctivitis, right eye, probably related (number) (healthy male volunteers; single dose 0.8 mg (1.6%)): 2
punctate keratitis, right eye, unrelated (number) (healthy male volunteers; single dose 0.8 mg (1.6%)): 1
tolerability (healthy male volunteers; single dose 0.8 mg (1.6%)): rather well tolerated
clinical examination, vital signs or ECG parameters (healthy male volunteers; single dose part): No clinically relevant findings
intensity of TEAEs (healthy male volunteers; single dose part): mild
serious adverse events (healthy male volunteers; single dose part): No serious adverse events
TEAEs experienced after XG-104 administration (number) (healthy male volunteers; single dose part, 0.1-0.8 mg, one drop right eye): 21
PHA-L-induced IL-2 release (human whole blood): did reduce the PHA-L-induced IL-2 release in a dose-dependent manner
PHA-L-induced TNF-α release (human whole blood): did reduce the PHA-L-induced TNF-α release in a dose-dependent manner
